Measured values: PubChem BioAssay (NCI)
“And” between values parts separate entries of the source, which are not always exact repeats. Equal values may be shown once.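 Results reflect a 48-hour exposure of cells in 96-well plates to compound at five concentrations. GI50: concentration for 50% inhibition of growth. TGI marks complete inhibition of growth.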

Assays:
Test in all cases: NCI anticancer screen, dose series, 48 h
[1] = system: 786-0 renal
[2] = system: A498 renal
[3] = system: A549 NSCLC
[4] = system: ACHN renal
[5] = system: CAKI-1 renal
[6] = system: CCRF-CEM leukemia
[7] = system: COLO 205 colon
[8] = system: DLD-1 colon
[9] = system: DMS 114 small cell lung
[10] = system: DMS 273 small cell lung
[11] = system: EKVX NSCLC
[12] = system: HCC-2998 colon
[13] = system: HCT-116 colon
[14] = system: HCT-15 colon
[15] = system: HL-60(TB) leukemia
[16] = system: HOP-62 NSCLC
[17] = system: HOP-92 NSCLC
[18] = system: HT29 colon
[19] = system: IGROV1 ovarian
[20] = system: K-562 leukemia
[21] = system: KM12 colon
[22] = system: KM20L2 colon
[23] = system: LXFL 529 NSCLC
[24] = system: M14 melanoma
[25] = system: MALME-3M melanoma
[26] = system: MOLT-4 leukemia
[27] = system: NCI-H226 lung
[28] = system: NCI-H23 lung
[29] = system: NCI-H460 lung
[30] = system: NCI-H522 lung
[31] = system: OVCAR-3 ovarian
[32] = system: OVCAR-4 ovarian
[33] = system: OVCAR-5 ovarian
[34] = system: OVCAR-8 ovarian
[35] = system: RPMI-8226 leukemia
[36] = system: RXF 393 renal
[37] = system: SF-268 CNS
[38] = system: SF-295 CNS
[39] = system: SF-539 CNS
[40] = system: SK-MEL-2 melanoma
[41] = system: SK-MEL-28 melanoma
[42] = system: SK-OV-3 ovarian
[43] = system: SN12C renal
[44] = system: SNB-19 CNS
[45] = system: SNB-75 CNS
[46] = system: SNB-78 CNS
[47] = system: SR leukemia
[48] = system: SW-620 colon
[49] = system: TK-10 renal
[50] = system: U251 CNS
[51] = system: UACC-257 melanoma
[52] = system: UACC-62 melanoma
[53] = system: UO-31 renal
[54] = system: BT-549 breast
[55] = system: DU-145 prostate
[56] = system: HS 578T breast
[57] = system: LOX IMVI melanoma
[58] = system: MCF7 breast
[59] = system: MDA-MB-231 breast
[60] = system: MDA-MB-435
[61] = system: MDA-N
[62] = system: NCI/ADR-RES ovarian
[63] = system: PC-3 prostate
[64] = system: SK-MEL-5 melanoma
[65] = system: T-47D breast

`CCOC(=O)CSC(=O)NCCCl` showed a TGI [1] greater than 100 µM, a TGI [2] greater than 100 µM and a TGI [3] greater than 100 µM. For the same compound, the TGI [4] was greater than 100 µM, the TGI [5] was greater than 100 µM and the GI50 [6] was 7.22 µM. The TGI [6] was greater than 100 µM, the TGI [7] was greater than 100 µM and the TGI [8] was greater than 100 µM. The TGI [9] was greater than 100 µM, the TGI [10] was greater than 100 µM and the TGI [11] was greater than 100 µM. It also gave a TGI [12] greater than 100 µM, a TGI [13] greater than 100 µM and a TGI [14] greater than 100 µM. The GI50 [15] was 22.3 µM, the TGI [15] was greater than 100 µM and the TGI [16] was greater than 100 µM. For the same compound, the TGI [17] was greater than 100 µM, the TGI [18] was greater than 100 µM and the TGI [19] was greater than 100 µM. The GI50 [20] was 29 µM, the TGI [20] was greater than 100 µM and the TGI [21] was greater than 100 µM. The TGI [22] was greater than 100 µM, the TGI [23] was greater than 100 µM and the TGI [24] was greater than 100 µM. For the same compound, the TGI [25] was greater than 100 µM, the GI50 [26] was greater than 100 µM and the TGI [26] was greater than 100 µM. It also gave a TGI [27] greater than 100 µM, a TGI [28] greater than 100 µM and a TGI [29] greater than 100 µM. The TGI [30] was greater than 100 µM, the TGI [31] was greater than 100 µM and the TGI [32] was greater than 100 µM. For the same compound, the TGI [33] was greater than 100 µM, the TGI [34] was greater than 100 µM and the GI50 [35] was greater than 100 µM. The TGI [35] was greater than 100 µM, the TGI [36] was greater than 100 µM and the TGI [37] was greater than 100 µM. It also gave a TGI [38] greater than 100 µM, a TGI [39] greater than 100 µM and a TGI [40] greater than 100 µM. The TGI [41] was greater than 100 µM, the TGI [42] was greater than 100 µM and the TGI [43] was greater than 100 µM. It also gave a TGI [44] greater than 100 µM, a TGI [45] greater than 100 µM and a TGI [46] greater than 100 µM. For the same compound, the GI50 [47] was greater than 100 µM, the TGI [47] was greater than 100 µM and the TGI [48] was greater than 100 µM. It also gave a TGI [49] greater than 100 µM, a TGI [50] greater than 100 µM and a TGI [51] greater than 100 µM. It also gave a TGI [52] greater than 100 µM and a TGI [53] greater than 100 µM.
For `COC(=O)C1OC(O[C@H]2CC[C@]3(C)[C@H]4CC=C5[C@@H]6CC(C)(C)CC[C@]6(C(=O)OC6OCC(O)C(O)C6OC6OC(C)C(OC7OCC(O)C(OC8OCC(O)C(O)C8O)C7O)C(OC7OCC(O)C(O)C7O)C6O)CC[C@@]5(C)[C@]4(C)CC[C@H]3C2(C)C)C(O)C(OC2OCC(O)C(O)C2O)C1O` (stereo partly drawn), the TGI [1] was > 100 µM and 16.6 µM, the TGI [2] was 3.55 µM and 4.34 µM and the TGI [3] was 11.3 µM and 11.7 µM. For the same compound, the TGI [4] was 22.1 µM and 15.9 µM, the TGI [54] was 8.45 µM and 9.89 µM and the TGI [5] was 35.4 µM and 17.9 µM. The TGI [6] was > 100 µM and 30.2 µM, the TGI [7] was 2.97 µM and 3.08 µM and the TGI [55] was > 70.6 µM and 37.2 µM. For the same compound, the TGI [11] was 16.3 µM and 14.8 µM, the TGI [12] was 3.13 µM and 3.37 µM and the TGI [13] was > 100 µM and 23.3 µM. The TGI [14] was > 100 µM and 35.2 µM, the TGI [15] was 4.36 µM and 5.23 µM and the GI50 [16] was 4.76 µM and 10.9 µM. The TGI [16] was 17.8 µM and 23.7 µM, the TGI [17] was 5.25 µM and 7.62 µM and the TGI [56] was > 100 µM and 33.9 µM. The TGI [18] was 10.1 µM and 10.9 µM, the TGI [19] was > 100 µM and 24.9 µM and the TGI [20] was 14.9 µM and 19.1 µM. The TGI [21] was 10.7 µM and 10.8 µM, the TGI [57] was 26.5 µM and 21.6 µM and the TGI [24] was 3.7 µM and 5.19 µM. The TGI [25] was 19.4 µM and 18.3 µM, the TGI [58] was > 84.5 µM and 20.9 µM and the TGI [59] was 8.81 µM and 13.5 µM. The TGI [60] was 4.13 µM and 4.42 µM, the TGI [61] was 3.35 µM and 4.04 µM and the TGI [26] was 27.6 µM and 28.4 µM. For the same compound, the TGI [27] was 11 µM and 17.8 µM, the TGI [28] was > 36.7 µM and 16.2 µM and the GI50 [29] was > 100 µM and 33.1 µM. The TGI [29] was greater than 100 µM, the TGI [30] was 5.32 µM and 5.78 µM and the TGI [62] was > 100 µM and 21 µM. For the same compound, the TGI [31] was > 100 µM and 45.9 µM, the TGI [32] was > 100 µM and 20.2 µM and the TGI [33] was 22.5 µM and 15.8 µM. The TGI [34] was > 100 µM and 23.3 µM, the TGI [63] was 18.9 µM and 16.4 µM and the TGI [35] was 9 µM and 15.6 µM. For the same compound, the GI50 [36] was 6.36 µM and 13.7 µM, the TGI [36] was > 67 µM and 35.6 µM and the TGI [37] was > 76.2 µM and 19.9 µM. For the same compound, the TGI [38] was 11.5 µM and 17 µM, the GI50 [39] was > 100 µM and 47.6 µM and the TGI [39] was greater than 100 µM. For the same compound, the TGI [40] was 9.16 µM and 7.73 µM, the TGI [41] was 4.02 µM and 6.16 µM and the TGI [64] was 7 µM and 12.1 µM. The TGI [42] was > 100 µM and 27.8 µM, the TGI [43] was 5.4 µM and 5.69 µM and the TGI [44] was > 100 µM and 20.1 µM. The GI50 [45] was 5.19 µM and 11.7 µM, the TGI [45] was 25.3 µM and 26.3 µM and the TGI [47] was 4.76 µM and 7.55 µM. The TGI [48] was > 100 µM and 24 µM, the TGI [65] was 42.3 µM and 19.2 µM and the TGI [49] was 70.4 µM and 24.4 µM. For the same compound, the TGI [50] was > 100 µM and 20.6 µM, the TGI [51] was 8.58 µM and 10.8 µM and the TGI [52] was 8.36 µM and 13.7 µM. The TGI [53] was 4.36 µM and 4.14 µM.
